In patent US20120309796A1, “BENZOCYCLOHEPTENE ACETIC ACIDS” (priority 2011, published 2012):

How the values were obtained:
human CRTH2 [1] = target: T1, human CRTH2 (Homo sapiens, UniProt Q9Y5Y4); assay: Human CRTH2 Receptor Binding Assay (whole cell, [3H]ramatroban competition); parameters: two mammalian expression vectors that harbored human CRTH2 and G-alpha16 cDNAs; expressed in transfected cells; conditions: CHO-K1 cells expressing human CRTH2 and G-alpha16; 20 nM [3H]ramatroban; 1 hour, room temperature
T1 sequence (Q9Y5Y4 1-395): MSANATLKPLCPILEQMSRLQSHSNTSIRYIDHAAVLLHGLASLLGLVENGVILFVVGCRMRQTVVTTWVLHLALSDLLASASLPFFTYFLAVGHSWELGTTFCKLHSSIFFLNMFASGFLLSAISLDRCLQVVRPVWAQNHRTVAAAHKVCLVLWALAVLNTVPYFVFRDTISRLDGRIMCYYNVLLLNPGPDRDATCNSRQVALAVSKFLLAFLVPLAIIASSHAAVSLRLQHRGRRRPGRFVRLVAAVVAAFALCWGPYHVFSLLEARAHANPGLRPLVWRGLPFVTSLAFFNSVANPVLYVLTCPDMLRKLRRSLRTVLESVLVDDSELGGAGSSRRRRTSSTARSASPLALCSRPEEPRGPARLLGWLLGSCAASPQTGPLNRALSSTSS
Description: A whole cell receptor binding assay using [^3H]ramatroban as the competing radioactive ligand was employed to evaluate the compound binding activity to human CRTH2. The radioactive ligand [^3H]ramatroban was synthesized according to Sugimoto et. al. (Eur. J. Pharmacol. 2005, 524, 30-37) to a specific activity of 42 Ci/mmol
A cell line stably expressing human CRTH2 was established by transfecting CHO-K1 cells with two mammalian expression vectors that harbored human CRTH2 and G-alpha16 cDNAs, respectively, using FuGene® 6 transfection reagent (from Roche). Stable clones expressing CRTH2 were selected by staining each clone with BM16 (BD Pharmingen™ from BD Biosciences, a division of Becton, Dickinson and Company), which is a rat monoclonal antibody to human CRTH2. The cells were maintained as monolayer cultures in Ham's F-12 medium containing 10% fetal bovine serum, 100 units/mL penicillin, 100 μg/mL streptomycin, 2 mM glutamine, 0.5 mg/mL G418 (geneticin) for CRTH2, and 0.2 mg/mL hygromycin-B (for G-alpha 16). For whole cell receptor binding assay, the monolayer cells were rinsed once with PBS (phosphate buffered saline), dissociated using ethylenediaminetetraacetate (Versene™ EDTA from Lonza Inc.), and suspended in PBS containing 10 mM MgCl2 and 0.06% BSA (bovine serum albumin) at 1.5×10^6 cells/mL.
The binding reactions (0.2 mL) were performed in 96-well plates at room temperature in PBS containing 1.5×10^5 cells, 10 mM MgCl2, 0.06% BSA, 20 nM [^3H]ramatroban, and test compound at various concentrations. After 1 hour of binding reactions, the cells were harvested on GF™/B filter microplates (microtiter plates with embedded glass fiber from PerkinElmer, Inc.) and washed 5 times with PBS using a Filtermate™ Harvester (a cell harvester that harvests and washes cells from microplates from PerkinElmer, Inc.). The radioactivities bound to the cells were determined using a microplate scintillation counter (TopCount® NXT, from PerkinElmer, Inc.) after adding 50 μL of Microscint™ 20 scintillation fluid (from PerkinElmer, Inc.) to each well of the filter plates. The radioactivity from non-specific binding was determined by replacing compound with 10 μM of 15(R)-15-methyl PGD2 (from Cayman Chemical Company) in the reaction mixtures. The radioactivity bound to the cells in the absence of compound (total binding) was determined by replacing compound with 0.25% of DMSO (dimethyl sulfoxide) in the reaction mixture. Specific binding data were obtained by subtracting the radioactivity of non-specific binding from each binding data.
The IC50 value is defined as the concentration of the tested compound that is required for 50% inhibition of total specific binding. In order to calculate the IC50 value, the percent inhibition data were determined for 7 concentrations for each compound. The percent inhibition for a compound at each concentration was calculated according to the following formula, [1-(specific binding in the presence of compound)/(total specific binding)]×100. The IC50 value was then obtained by fitting the percent inhibition data to a sigmoidal dose-response (4 parameter logistic) model in the XLfit® software Excel add-in program [from ID Business Solutions Ltd., model 205, where F(x)=(A+(B−A)/(1+((C/x)̂D)))].

human CRTH2 [2] = target: T1, human CRTH2; assay: Calcium Flux Assay Using Fluorometric Imaging Plate Reader (FLIPR); format: cell-based; parameters: expressed in transfected cells; host or cells: CHO-K1 previously transfected with G-alpha 16; conditions: CHO-K1 cells with G-alpha 16 and human CRTH2; inhibition of DK-PGD2 ligand-induced Ca2+ flux
Experimental: CHO-K1 cells previously transfected with G-alpha 16 were subsequently transfected with the human CRTH2 receptor and the neomycin resistance gene. Following selection in 800 μg/mL G418 (geneticin), individual clones were assayed for their receptor expression based on staining with an anti human CRTH2 IgG, followed by assaying for their response to 13,14-dihydro-15-keto Prostaglandin D2 (DK-PDG2) (ligand) in the Ca^2+ Flux assay. Positive clones were then cloned by limiting dilution cloning. The transfected cells were cultured in Ham's F-12 medium supplemented with 10% fetal bovine serum, 2 mM glutamine, 100 U/mL penicillin/100 μg/mL streptomycin, 200 μg/mL hygromycin B, and 800 μg/mL G418 (geneticin). Cells were harvested with trypsin-EDTA (trypsin-ethylenediaminetetraacetic acid) and counted using ViaCount® reagent (from Guava Technologies, Inc. which contains two DNA-binding dyes that enable the reagent user to distinguish between viable and non-viable cells). The cell suspension volume was adjusted to 2.5×10^5 cells/mL with complete growth media. Aliquots of 50 μL were dispensed into BD Falcon™ 384 well black/clear microplates (from BD Biosciences, a division of Becton, Dickinson and Company) and the microplates were placed in a 37° C. CO2 incubator overnight. The following day, the microplates were used in the assay.
Loading Buffer containing dye (from the FLIPR® Calcium 3 Assay Kit from Molecular Devices, a division of MDS Analytical Technologies and MDS Inc.) was prepared by dissolving the contents of one bottle into 200 mL Hank's Balanced Salt Solution containing 20 mM HEPES (4-(2-hydroxyethyl)-1-piperazineethanesulfonic acid) and 2.5 mM probenecid. Growth media was removed from the cell plates and 25 μL of Hank's Balanced Salt Solution (HBSS) containing 20 mM HEPES, 0.05% BSA and 2.5 mM probenecid was added to each well followed by 25 μL of diluted dye using a Multidrop dispenser. The plates were then incubated for 1 hour at 37° C.
During the incubation, test compound plates were prepared by adding 90 μL of HBSS/20 mM HEPES/0.005% BSA buffer to the 2 μL of serial diluted compounds. To prepare serial diluted compounds, 20 mM stocks of compounds were dissolved in 100% DMSO. The compound dilution plate was set up as follows: well #1 received 5 μL of compound plus 10 μL of DMSO. Wells 2-10 received 10 μL of DMSO. 5 μL was mixed and transferred from well #1 into well #2. 1:3 serial dilutions were continued out 10 steps. 2 μl of diluted compound was transferred into duplicate wells of a 384 well “assay plate” and then 90 μL of buffer was added.
After incubation, both the cell and “assay plate” plates were brought to the fluorometric imaging plate reader (FLIPR®) and 20 μL of the diluted compounds were transferred to the cell plates by the FLIPR®. Plates were then incubated for 1 hour at room temperature. After the 1 hour incubation, plates were returned to the FLIPR® and 20 μL of 4.5× concentrated ligand was added to the cell plates. During the assay, fluorescence readings were taken simultaneously from all 384 wells of the cell plate every 1.5 seconds. Five readings were taken to establish a stable baseline, then 20 μL of sample was rapidly (30 μL/sec) and simultaneously added to each well of the cell plate. The fluorescence was continuously monitored before, during and after sample addition for a total elapsed time of 100 seconds. Responses (increase in peak fluorescence) in each well following agonist addition were determined. The initial fluorescence reading from each well, prior to ligand stimulation, was used as a zero baseline value for the data from that well. The responses were expressed as % inhibition of the buffer control. […]

SMILES	IC50 (human CRTH2 [1]) [nM]	IC50 (human CRTH2 [2]) [nM]
O=C(O)COc1cccc2c1CCCCC2NS(=O)(=O)c1cc(Br)cc(C(F)(F)F)c1 (stereo not shown) [Example 8, [5-(3-Bromo-5-trifluoromethyl-benzenesulfonylamino)-6,7,8,9-tetrahydro-5H-benzocyclohepten-1-yloxy]-acetic acid]	47	36.6
O=C(O)COc1cccc2c1CCCCC2NS(=O)(=O)c1ccc(-c2ccc(O)cc2)cc1 (stereo not shown) [Example 23, [5-(4′-Hydroxy-biphenyl-4-sulfonylamino)-6,7,8,9-tetrahydro-5H-benzocyclohepten-1-yloxy]-acetic acid]	103	42.1
CC(C)c1cccc(-c2cccc(S(=O)(=O)NC3CCCCc4c(OCC(=O)O)cccc43)c2)c1 (stereo not shown) [Example 41, [5-(3′-Isopropyl-biphenyl-3-sulfonylamino)-6,7,8,9-tetrahydro-5H-benzocyclohepten-1-yloxy]-acetic acid]	226	> 5000
O=C(O)COc1cccc2c1CCCCC2NS(=O)(=O)c1cc(Cl)cc(Cl)c1 (stereo not shown) [Example 2, [5-(3,5-Dichloro-benzenesulfonylamino)-6,7,8,9-tetrahydro-5H-benzocyclohepten-1-yloxy]-acetic acid]	58.4	340
Cc1ccc(-c2cccc(S(=O)(=O)NC3CCCCc4c(OCC(=O)O)cccc43)c2)cc1 (stereo not shown) [Example 39, [5-(4′-Methyl-biphenyl-3-sulfonylamino)-6,7,8,9-tetrahydro-5H-benzocyclohepten-1-yloxy]-acetic acid]	514	–
COc1cc(C(F)(F)F)cc(S(=O)(=O)NC2CCCCc3c(OCC(=O)O)cccc32)c1 (stereo not shown) [Example 13, [5-(3-Methoxy-5-trifluoromethyl-benzenesulfonylamino)-6,7,8,9-tetrahydro-5H-benzocyclohepten-1-yloxy]-acetic acid]	158	–

More lines, now with the values ahead:

IC50 (human CRTH2 [1]) [nM]	IC50 (human CRTH2 [2]) [nM]	SMILES
57.4	6.1	CN(C1CCCCc2c(OCC(=O)O)cccc21)S(=O)(=O)c1cc(Br)cc(C(F)(F)F)c1 (stereo not shown) [Example 9, {5-[(3-Bromo-5-trifluoromethyl-benzenesulfonyl)-methyl-amino]-6,7,8,9-tetrahydro-5H-benzocyclohepten-1-yloxy}-acetic acid]
17.9	140	Cc1cc(-c2ccc(S(=O)(=O)NC3CCCCc4c(OCC(=O)O)cccc43)nc2)cc(C(C)(C)C)c1 (stereo not shown) [Example 35, {5-[5-(3-tert-Butyl-5-methyl-phenyl)-pyridine-2-sulfonylamino]-6,7,8,9-tetrahydro-5H-benzocyclohepten-1-yloxy}-acetic acid]
164	784	Cc1cc(-c2ccc(S(=O)(=O)N(C)C3CCCCc4c(OCC(=O)O)cccc43)nc2)cc(C(C)(C)C)c1 (stereo not shown) [Example 36, (5-{[5-(3-tert-Butyl-5-methyl-phenyl)-pyridine-2-sulfonyl]-methyl-amino}-6,7,8,9-tetrahydro-5H-benzocyclohepten-1-yloxy)-acetic acid]
178	29.2	O=C(O)COc1cccc2c1CCCCC2NS(=O)(=O)c1ccc(-c2cccc(C(F)(F)F)c2)cn1 (stereo not shown) [Example 33, {5-[5-(3-Trifluoromethyl-phenyl)-pyridine-2-sulfonylamino]-6,7,8,9-tetrahydro-5H-benzocyclohepten-1-yloxy}-acetic acid]
33.4	–	CN(C1CCCCc2c(OCC(=O)O)cccc21)S(=O)(=O)c1cc(S(C)(=O)=O)cc(S(C)(=O)=O)c1 (stereo not shown) [Example 11, {5-[(3,5-Bis-methanesulfonyl-benzenesulfonyl)-methyl-amino]-6,7,8,9-tetrahydro-5H-benzocyclohepten-1-yloxy}-acetic acid]
555	–	Cc1ccc(-c2cccc(S(=O)(=O)N(C)C3CCCCc4c(OCC(=O)O)cccc43)c2)cc1 (stereo not shown) [Example 40, {5-[Methyl-(4′-methyl-biphenyl-3-sulfonyl)-amino]-6,7,8,9-tetrahydro-5H-benzocyclohepten-1-yloxy}-acetic acid]
5.9	–	CC(=O)c1cc(C(F)(F)F)cc(S(=O)(=O)N(C)C2CCCCc3c(OCC(=O)O)cccc32)c1 (stereo not shown) [Example 16, {5-[(3-Acetyl-5-trifluoromethyl-benzenesulfonyl)-methyl-amino]-6,7,8,9-tetrahydro-5H-benzocyclohepten-1-yloxy}-acetic acid]
189	–	Cc1cc(-c2ccc(S(=O)(=O)N(C)C3CCCCc4c(OCC(=O)O)cccc43)cc2)cc(C(C)(C)C)c1 (stereo not shown) [Example 22, {5-[(3′-tert-Butyl-5′-methyl-biphenyl-4-sulfonyl)-methyl-amino]-6,7,8,9-tetrahydro-5H-benzocyclohepten-1-yloxy}-acetic acid]
